From patent publication EP0120019B1, “PHARMACEUTICAL COMPOSITION HAVING A C[…]” (SCHERING AKTIENGESELLSCHAFT, priority 1982, dated 1983)

Tests used:
[1] = test system: Menschliche Leukämiezellen und Lungenkarzinomzellen; assay: Inhibition of proliferation (growth kinetics by cell count) of tumour cells in culture; assay type: cell-based; conditions: for zytostatische Wirkung (Hemmung der Proliferation in vitro): general statement
[2] = Long-term oral treatment of rats (104 - 107 weeks), mortality; assay type: in vivo, Han-Wistar-Ratten; conditions: 0,02, 0,2 and 1,0 mg/kg oral
[3] = test system: weißen Blutzellen des Menschen; assay: Accumulation in cells on incubation, detected by fluorescence optics; assay type: cell-based; conditions: incubation with 10^-7 -10-5-molar concentration
Source text: Die selektive Wirkung auf Tumore wird auch dadurch unterstützt, daß sich Ergot-Alkaloide wie Lisurid in einzelnen Organen selektiv anreichern und damit hier zu besonders hoher Wirksamkeit gelangen.

[4] = test system: Lungenademokarzinomen und Mäuseleukämien; assay: Long-term oral treatment of mice (104 - 107 weeks), mortality and tumour incidence; assay type: in vivo, NMRI-Mäuse; conditions: 0.02, 0,06 and 0,2 mg/kg oral
Source text: Des weiteren wurden NMRI-Mäuse mit 0.02.

[5] = test system: adulte und embryonale Lungenfibroblasten; assay: Inhibition of proliferation of normal cells under the same culture conditions; assay type: cell-based; conditions: high doses such as 100 ug/ml; same test conditions
Source text: Tag durch frisches Medium mit Lisurid ersetzt wurde, wobei sich die Menge des Ergot-Alkaloids auf die freie Base Lisurid bezieht. Die Wachstumskinetik, d.h. die Vermehrungsrate pro Zeiteinheit, wurde durch Bestimmung der Zellzahl nach 48, 96 und 144 Stunden ermittelt und mit der von Zellen verglichen, die in Lisurid-freiem Medium kultiviert wurden.

## CCN(CC)C(=O)N[C@H]1C=C2c3cccc4[nH]c(Br)c(c34)C[C@H]2N(C)C1 [Bromergurid, 1,1-Diethyl-3-(2-brom-6-methyl-9.10-didehydro-8a-ergolinyl)-harnstoff]
[1]
  zytostatische Wirkung (Hemmung der Proliferation in vitro): zytostatisch wirken

## CCN(CC)C(=O)N[C@H]1C=C2c3cccc4[nH]cc(c34)C[C@H]2N(C)C1 [Lisurid, 1,1-Diethyl-3-(6-methyl-9.10-didelhydro-8a-ergolinyl)-harnstoff]
[2]
  Sterblichkeit (überwiegend tumorbedingt): dosisabhängig reduzieren
[3]
  Anreicherung der Lisuridfluoreszenz: massive Anreicherung
[4]
  Auftreten von Lungenademokarzinomen und Mäuseleukämien: deutlichen Hemmung
  Mortalität: teilweise zur Verminderung der Mortalität
[5]
  Hemmung von Normalzellen: wenn überhaupt nur minimal gehemmt
[1]; 100 ug/ml
  zytotoxische Wirkung: zytotoxische Wirkung

## CCCN1CC(NC(=O)N(CC)CC)CC2c3cccc4[nH]cc(c34)CC21 (stereo not drawn) [Protegurid, 1,1-Diethyl-3-(6-u-propyl-8α-ergolinyl)-harnstoff]
[1]
  zytostatische Wirkung (Hemmung der Proliferation in vitro): zytostatisch wirken

## CCN(CC)C(=O)N[C@H]1C[C@@H]2c3cccc4[nH]cc(c34)C[C@H]2N(C)C1 [Tergurid, 1,1-Diethyl-3-(6-methyl-8a-erfolinyl)-harnstoff]
[1]
  zytostatische Wirkung (Hemmung der Proliferation in vitro): zytostatisch wirken
